{"source": "patent US20250195624A1", "about": "“USE OF SUPEROXIDE DISMUTASE FOR THE TREATMENT AND/OR PREVENTION OF ALLERGIC ASTHMA” (ISOCELL S.A.S., priority 2022, published 2025)", "type_in_all_cases": "in vivo, Balb/cj mice", "key": {"[1]": {"test_system": "house dust mite (HDM) allergy induced mice", "experiment": "Respiratory function by flexiVent in response to methacholine, HDM allergy induced mice", "settings": "asthmatic mice, increasing doses of methacholine", "method": "(§1) An allergic asthma murine model involving exposure to house dust mites was used. This model comprises a preliminary percutaneous sensitisation challenge phase of Balb/cj mice with a whole house dust mite extract (days 0, 7, 14, and 21), followed by two intranasal stimulations (days 27 and 34) which induced the symptoms of allergy-induced asthma in the test subjects. The efficacy of the Glisodin formulations was evaluated by daily administration to the mice via force feeding of 5 mg of the Glisodin formulation diluted in water, starting at 24 hours after the first intranasal sensitisation challenge and continuing for 5 consecutive days every week for 5 weeks. For comparative purposes, the same protocol was used to evaluate the effect of a combined administration of Glisodin with salbutamol, in which case the salbutamol was administered for 30 seconds at a solution concentration of 5 mg/ml as a nebulized aerosol 1 hour before each sensitisation challenge.\nRespiratory function in the mice was analysed using the flexi Vent™ system available from SciReq and the results illustrated in FIGS. 7 and 8. […] Respiratory function was measured using the flexiVent™ system in response to increasing doses of the broncho-constrictor methacholine. […]\nThe efficacy of Glisodin was also analysed in combination with salbutamol, a B2-adrenergic receptor agonist having a bronchodilatory and anti-inflammatory activity, as used in the treatment of asthma attacks, the results of which are illustrated in FIG. 8. […] In the charts, CTL or control indicates naïve untreated, untreated asthmatic mice (HDM), asthmatic mice having received salbutamol treatment (Salbutamol), asthmatic mice having received salbutamol and wheat Glisodin (Salbu Wheat) or asthmatic mice having received salbutamol with melon Glisodin (Salbu Melon), all measured by flexi Vent in response to increasing doses of the bronchoconstrictor methacholine. […]"}, "IL-5, IL-13, IL-17": {"test_system": "IL-5, IL-13, IL-17", "experiment": "Cytokine response in supernatant of BAL", "settings": "asthmatic mice", "method": "as §1\nCytokines are produced in response to antigens present at the surface of foreign bodies or by molecules considered as foreign by the immune. […] In the present case, Th2 inflammatory pathway cytokines, for example, IL-5 and IL-13, and Th17 cytokines, such as IL-17 were measured in the supernatant of BAL of the various mouse groups, and the results illustrated in FIG. 12, with application of ANOVA analysis of the data using the Tukey test leading to a confidence interval as indicated on the charts established: *=p<0.05, ** p<0.01 and *** p<0.001, in a population n=6 to 8 mice per group."}, "[2]": {"test_system": "Th1, Th2 and Th17 lymphocyte", "experiment": "Immune response: lung cells restimulated with whole dust mite extract, flow cytometry", "settings": "lungs of asthmatic mice", "method": "as §1\nAt the end of the treatment protocol, mice lungs were harvested, ground, restimulated with whole dust mite extract and the resulting cell populations analysed using flow cytometry. The results are illustrated in FIG. 10, in which the following cell types were counted: Th1 (CD3+, CD4+, IFNγ+), Th2 (CD3+, CD4+, IL-13+) and Th17 (CD3+, CD4+, IL-17+). […]"}, "[3]": {"test_system": "house dust mite (HDM) allergy induced mice", "experiment": "Tissular degradation: histological analysis of lung samples (eosin and hematoxylin), scoring system", "settings": "double blind scoring", "method": "as §1, with “For comparative purposes, the same protocol was used to evaluate the effect of a combined administration of Glisodin with salbutamol, in which case the salbutamol was administered for 30 seconds at a solution concentration of 5 mg/ml as a nebulized aerosol 1 hour before each sensitisation challenge.” left out\nIn situ evaluation of inflammation, bronchoconstriction and asthma severity were carried out via histological analysis, through staining of lung samples from the various mouse groups with eosin and hematoxylin, with a population of 6 mice per group, the images being shown at a scale of 100 μm, as illustrated in FIG. 13. The degree of tissular degradation was assessed in a double blind protocol by two independent assessors using a scoring system. […]"}, "[4]": {"test_system": "IgE specific to house dust mites and MCP-1", "experiment": "Humoral response: serum HDM-specific IgE by ELISA and MCP-1 production", "settings": "asthmatic mice", "excerpt": "An allergic asthma murine model involving exposure to house dust mites was used. This model comprises a preliminary percutaneous sensitisation challenge phase of Balb/cj mice with a whole house dust mite extract (days 0, 7, 14, and 21), followed by two intranasal stimulations (days 27 and 34) which induced the symptoms of allergy-induced asthma in the test subjects. […] For comparative purposes, the same protocol was used to evaluate the effect of a combined administration of Glisodin with salbutamol, in which case the salbutamol was administered for 30 seconds at a solution concentration of 5 mg/ml as a nebulized aerosol 1 hour before each sensitisation challenge. In allergic asthma, once the antigen has been recognised, clonal selection and proliferation taken place, followed by B lymphocyte differentiation into plasmocytes, the formation of the immune complex between IgE and allergens leads to degranulation of the effecting cells and liberation of chemical mediators such as histamine and MCP-1. In order to evaluate the effect of Glisodin treatment, with respect to initiation of an asthma attack, serum levels of IgE were measured by ELISA for IgE specific to house dust mites and measurements made of the levels of production of MCP-1. […]"}, "[5]": {"test_system": "cell population from bronchoalveolar lavages (BAL)", "experiment": "Inflammatory response: BAL cell population by flow cytometry, HDM allergy induced mice", "settings": "asthmatic mice", "method": "as §1\nAt the end of the study protocol on mice, bronchoalveolar lavage (BAL) were taken and the cell population analysed using flow cytometry. […] ANOVA analysis of the data using the Tukey test was carried out and a confidence interval as indicated on the charts established: *=p<0.05, ** p<0.01 and *** p<0.001, in a population of n-6 to 8 mice per group."}}}
{"molecule": "CC(C)(C)NCC(O)c1ccc(O)c(CO)c1", "note": "(stereo not shown) [salbutamol]", "values": [{"measurement": "compliance", "setting": "[1]", "result": "significant effect on the improvement"}, {"measurement": "elastance", "setting": "[1]", "result": "significant effect on the improvement"}, {"measurement": "resistance of the airways", "setting": "[1]", "result": "significant effect on the improvement"}, {"measurement": "IL-5 count", "setting": "IL-5, IL-13, IL-17", "result": "effective in reducing"}, {"measurement": "IL-17 count", "setting": "IL-5, IL-13, IL-17", "result": "tendency to decrease"}, {"measurement": "level of IL-13", "setting": "IL-5, IL-13, IL-17", "result": "neither salbutamol nor the various Glisodin formulations tested were able to reduce"}, {"measurement": "Th1 lymphocyte numbers", "setting": "[2]", "result": "reduction"}, {"measurement": "severity of the asthma (degree of tissular degradation, histological score)", "setting": "[3]", "result": "reduction"}, {"measurement": "level of MCP-1 produced", "setting": "[4]", "result": "reduced"}, {"measurement": "level of HDM-specific IgE", "setting": "[4]; serum", "result": "able to reduce"}, {"measurement": "number of eosinophils", "setting": "[5]; BAL", "result": "reduction"}, {"measurement": "number of lymphocytes", "setting": "[5]; BAL", "result": "reduction"}, {"measurement": "total number of cells in the BAL and lungs", "setting": "[5]; vs untreated asthmatic mice", "result": "reduction"}]}
